The nature of data set [1]: Half life in human at […] by HPLC method. The class given is ADME, organism-based. The note with it: in vivo.
The nature of data set [2]: Half life in rhesus monkey at 10 mg/kg by HPLC method. The class given is ADME, organism-based, Macaca mulatta. Also on record: dose 10 mg/kg. The note with it: in vivo.
A further data set concerns Plasma. Briefly: Plasma protein binding in human at […] by HPLC method. Format: ADME, cell-free.

A value given as a limit tells only on which side of the number the result lay.

One may read the half-life as how long it takes for the measured level to halve.

For the compound `C[C@@H](O)[C@H]1C(=O)N2C(C(=O)O)=C(S[C@@H]3CN[C@H](C(=O)Nc4cccc(C(=O)O)c4)C3)[C@H](C)[C@H]12`, the half-life in data set [1] and in data set [2] was 5 h in each case. For the same compound, the Activity with Plasma is on record as over 95%.

These data come from ChEMBL document CHEMBL1275576, “In vitro activity of tomopenem (CS-023/RO4908463) against anaerobic bacteria” (Antimicrob Agents Chemother, 2009).
